How the values were obtained:
Type in all cases: functional, cell-based
[1] = molecular target: T1, Uracil nucleotide/cysteinyl leukotriene receptor (Homo sapiens, UniProt Q13304); test: Antagonist activity at human GPR17 expressed in human 1321N1 cells assessed as inhibition of UDP-glucose-induced [35S]GTPgammaS binding after 30 mins by rapid filtration assay
[2] = molecular target: T1, Uracil nucleotide/cysteinyl leukotriene receptor; test: Agonist activity at human GPR17 expressed in human 1321N1 cells assessed as induction of [35S]GTPgammaS binding after 30 mins by rapid filtration assay
[3] = Agonist activity at human GPR17 R255I mutant expressed in human 1321N1 cells assessed as induction of [35S]GTPgammaS binding after 30 mins by rapid filtration assay
[4] = Antagonist activity at human GPR17 R255I mutant expressed in human 1321N1 cells assessed as inhibition of UDP-glucose-induced [35S]GTPgammaS binding after 30 mins by rapid filtration assay

T1 sequence (Q13304 whole entry): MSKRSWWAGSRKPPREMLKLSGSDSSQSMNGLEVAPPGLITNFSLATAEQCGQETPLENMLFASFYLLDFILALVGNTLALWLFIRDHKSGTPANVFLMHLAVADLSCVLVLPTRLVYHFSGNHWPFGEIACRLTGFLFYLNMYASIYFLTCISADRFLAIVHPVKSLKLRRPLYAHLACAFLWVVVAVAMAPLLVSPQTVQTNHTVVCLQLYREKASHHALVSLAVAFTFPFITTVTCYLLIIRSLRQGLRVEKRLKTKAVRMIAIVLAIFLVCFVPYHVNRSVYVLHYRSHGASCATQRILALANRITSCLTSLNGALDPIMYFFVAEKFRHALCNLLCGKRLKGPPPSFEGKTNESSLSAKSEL

| SMILES | IC50 [1] [nM] | EC50 [2] [nM] | further results |
| --- | --- | --- | --- |
| Nc1nc(C#Cc2ccccc2)nc2c1ncn2[C@@H]1O[C@H](COP(=O)(O)OP(=O)(O)OP(=O)(O)O)[C@@H](O)[C@H]1O |  | 0.036 | EC50 [3]: 0.0254 nM |
| CNc1ncnc2c1ncn2[C@H]1C[C@H](OP(=O)(O)O)[C@@H](COP(=O)(O)O)O1 | 508 |  | IC50 [4]: 227 nM |
| CNc1nc(Cl)cc2c1ncn2[C@@H]1O[C@H](COP(=O)(O)OP(=O)(O)OP(=O)(O)O)[C@@H](O)[C@H]1O |  | 1.7 |  |
| O=P(O)(O)OP(=O)(O)OP(=O)(O)OC[C@H]1O[C@@H](n2cnc3c(NC4CCCC4)ncnc32)[C@H](O)[C@@H]1O |  | 1.4 |  |
| Nc1nc(Cl)nc2c1ncn2[C@H]1C[C@H](OP(=O)(O)O)[C@@H](COP(=O)(O)O)O1 | 582 |  |  |

Now from value to compound, other results behind:

| IC50 [1] [nM] | EC50 [2] [nM] | SMILES | further results |
| --- | --- | --- | --- |
| 112 |  | CNc1ncnc2c1ncn2[C@@H]1O[C@H](COP(=O)(O)OP(=O)(O)OP(=O)(O)O)[C@@H](O)[C@H]1O |  |
|  | 11 | CNc1nc(Cl)nc2c1ncn2[C@@H]1O[C@H](COP(=O)(O)OP(=O)(O)OP(=O)(O)O)[C@@H](O)[C@H]1O |  |
|  | 945 | O=c1[nH]c(=O)n([C@@H]2O[C@H](COP(=O)(O)OP(=O)(O)O)[C@@H](O)[C@H]2O)cc1I | EC50 [3]: 1870 nM |
